In DBAASP:
In brackets after ≈: the same amount, converted by molar mass.

Assays:
Test in all cases: ≥ marks a high value that may be exact or a test limit, other limits are often not marked, values filed in µg/mL are converted to µM
[1] = tested on: Staphylococcus aureus ATCC 25923
[2] = tested on: Pseudomonas aeruginosa ATCC 27853
[3] = tested on: Escherichia coli ATCC 25922
[4] = tested on: Bacillus subtilis ATCC 6633
[5] = tested on: Staphylococcus epidermidis ATCC 12228
[6] = tested on: Klebsiella pneumoniae ATCC 700603
[7] = tested on: Candida albicans ATCC 90028
[8] = tested on: Staphylococcus aureus NCTC 8325
[9] = tested on: Staphylococcus aureus ATCC 43300
Escherichia coli UB1005 = tested on: Escherichia coli UB1005
[10] = tested on: Salmonella enterica subsp. enterica serovar Typhimurium ATCC 14028
[11] = tested on: Salmonella enterica subsp. enterica serovar Typhimurium C77-31
[12] = tested on: Staphylococcus aureus ATCC 29213
Escherichia coli = tested on: Escherichia coli
Candida albicans = tested on: Candida albicans
Staphylococcus aureus = tested on: Staphylococcus aureus

Compound	MIC [3]	MIC [7]	MIC [8]	further results
CC(=O)N[C@@H](Cc1ccccc1)C(=O)N[C@@H](CCCCN)C(=O)N[C@@H](CC(C)C)C(=O)N[C@@H](CCCCN)C(=O)N[C@@H](CC(C)C)C(=O)N[C@@H](CCCCN)C(=O)N[C@@H](Cc1ccccc1)C(=O)N[C@@H](CO)C(=O)N[C@@H](CC(N)=O)C(=O)N[C@@H](CCCCN)C(=O)N[C@@H](CC(C)C)C(=O)N[C@@H](CCCCN)C(=O)N[C@@H](Cc1c[nH]c2ccccc12)C(=O)N[C@@H](CCCCN)C(=O)N[C@@H](Cc1c[nH]c2ccccc12)C(N)=O [FKLKLKFSNKLKWKW]	12.5 µM (≈ 25.4 µg/mL)	–	–	MIC [1]: 25 µM (≈ 50.9 µg/mL); MIC [2]: 12.5 µM (≈ 25.4 µg/mL); MIC [4]: 3.2 µM (≈ 6.51 µg/mL); MIC [5]: 12.5 µM (≈ 25.4 µg/mL); MIC [6]: 25 µM (≈ 50.9 µg/mL)
CC[C@H](C)[C@H](NC(=O)[C@H](C)NC(=O)[C@@H]1CCCN1C(=O)[C@H](CC(C)C)NC(=O)[C@@H](N)Cc1ccccc1)C(=O)N[C@@H](C)C(=O)NCC(=O)N[C@H](C(=O)N[C@@H](C)C(=O)N[C@@H](C)C(=O)N[C@@H](CCCCN)C(=O)N[C@@H](Cc1ccccc1)C(=O)N[C@@H](CC(C)C)C(=O)N1CCC[C@H]1C(=O)N[C@@H](CCCCN)C(=O)N[C@H](C(=O)N[C@@H](Cc1ccccc1)C(=O)N[C@H]1CSSC[C@@H](C(=O)O)NC(=O)[C@H](CCCCN)NC(=O)[C@H](CCCCN)NC(=O)[C@H](CO)NC(=O)[C@H]([C@@H](C)CC)NC(=O)[C@H](C)NC1=O)[C@@H](C)CC)C(C)C [FLPAIAGVAAKFLPKIFCAISKKC]	7 µM (≈ 17.7 µg/mL)	7 µM (≈ 17.7 µg/mL)	3 µM (≈ 7.61 µg/mL)	–
CC[C@H](C)[C@@H]1NC(=O)[C@H](C)NC(=O)[C@@H](NC(=O)[C@H](Cc2ccccc2)NC(=O)[C@@H](NC(=O)[C@H](CCCCN)NC(=O)[C@@H]2CCCN2C(=O)[C@H](CC(C)C)NC(=O)[C@H](Cc2ccccc2)NC(=O)[C@H](CCCCN)NC(=O)[C@H](C)NC(=O)[C@H](C)NC(=O)[C@@H](NC(=O)CNC(=O)[C@H](C)NC(=O)[C@@H](NC(=O)[C@H](Cc2ccccc2)NC(=O)[C@@H]2CCCN2C(=O)[C@H](CC(C)C)NC(=O)[C@@H](N)Cc2ccccc2)[C@@H](C)CC)C(C)C)[C@@H](C)CC)CSSC[C@@H](C(=O)O)NC(=O)[C@H](CCCCN)NC(=O)[C@H](CCCCN)NC(=O)[C@H](CO)NC1=O [FLPFIAGVAAKFLPKIFCAISKKC]	–	–	13 µM (≈ 33.9 µg/mL)	–
CC[C@H](C)[C@@H]1NC(=O)[C@H](CC(C)C)NC(=O)[C@@H](NC(=O)[C@H](CC(C)C)NC(=O)[C@H](CC(C)C)NC(=O)[C@H](CCCCN)NC(=O)[C@@H]2CCCN2C(=O)CNC(=O)[C@H](CC(C)C)NC(=O)[C@@H](NC(=O)[C@H](C)NC(=O)[C@H](C)NC(=O)[C@H](CC(C)C)NC(=O)[C@H](CO)NC(=O)[C@H](C)NC(=O)[C@H](CC(C)C)NC(=O)[C@@H](NC(=O)[C@@H]2CCCN2C(=O)[C@H](CC(C)C)NC(=O)[C@@H](N)Cc2ccccc2)[C@@H](C)CC)[C@@H](C)O)CSSC[C@@H](C(=O)O)NC(=O)[C@H](CCCCN)NC(=O)[C@H](CCCCN)NC(=O)[C@H]([C@@H](C)O)NC1=O [FLPILASLAATLGPKLLCLITKKC]	–	≥ 35 µM	8 µM (≈ 20.2 µg/mL)	–
CC[C@H](C)[C@@H]1NC(=O)[C@H](C)NC(=O)[C@@H](NC(=O)[C@H](Cc2ccccc2)NC(=O)[C@@H](NC(=O)[C@H](CCCCN)NC(=O)[C@@H]2CCCN2C(=O)[C@H](CC(C)C)NC(=O)[C@H](Cc2ccccc2)NC(=O)[C@H](CC(N)=O)NC(=O)[C@H](C)NC(=O)[C@H](C)NC(=O)[C@H](CC(C)C)NC(=O)CNC(=O)[C@H](C)NC(=O)[C@@H](NC(=O)[C@H](CC(C)C)NC(=O)[C@@H]2CCCN2C(=O)[C@H](CC(C)C)NC(=O)[C@@H](N)Cc2ccccc2)[C@@H](C)CC)[C@@H](C)CC)CSSC[C@@H](C(=O)O)NC(=O)[C@H](CCCCN)NC(=O)[C@H](CCCCN)NC(=O)[C@H]([C@@H](C)O)NC1=O [FLPLIAGLAANFLPKIFCAITKKC]	26 µM (≈ 67.4 µg/mL)	6 µM (≈ 15.5 µg/mL)	9 µM (≈ 23.3 µg/mL)	–
CC[C@H](C)[C@H](NC(=O)[C@H](CCCCN)NC(=O)[C@@H]1CCCN1C(=O)[C@H](CC(C)C)NC(=O)[C@H](Cc1ccccc1)NC(=O)[C@H](CC(N)=O)NC(=O)[C@H](C)NC(=O)[C@H](C)NC(=O)[C@H](CC(C)C)NC(=O)CNC(=O)[C@H](C)NC(=O)[C@H](CC(C)C)NC(=O)[C@H](CC(C)C)NC(=O)[C@@H]1CCCN1C(=O)[C@H](CC(C)C)NC(=O)[C@@H](N)Cc1ccccc1)C(=O)N[C@@H](Cc1ccccc1)C(=O)N[C@H]1CSSC[C@@H](C(=O)O)NC(=O)[C@H](CCCCN)NC(=O)[C@H](CCCCN)NC(=O)[C@H]([C@@H](C)O)NC(=O)[C@H]([C@@H](C)CC)NC(=O)[C@H](CCCCN)NC1=O [FLPLLAGLAANFLPKIFCKITKKC]	25 µM (≈ 66.2 µg/mL)	–	12.5 µM (≈ 33.1 µg/mL)	–
CC[C@H](C)[C@H](NC(=O)[C@H](CCCCN)NC(=O)[C@H](CS)NC(=O)[C@H](C)NC(=O)[C@@H](NC(=O)[C@H](Cc1ccccc1)NC(=O)[C@H](CCC(=O)O)NC(=O)[C@H](CC(C)C)NC(=O)[C@H](CCC(=O)O)NC(=O)[C@@H](NC(=O)[C@H](CCCCN)NC(=O)[C@H](CCC(=O)O)NC(=O)[C@H](CC(C)C)NC(=O)[C@H](CC(N)=O)NC(=O)[C@H](CCCCN)NC(=O)[C@H](CC(C)C)NC(=O)[C@@H](NC(=O)[C@H](CO)NC(=O)[C@H](CC(C)C)NC(=O)[C@H](CCSC)NC(=O)[C@@H](N)CO)C(C)C)C(C)C)C(C)C)C(=O)N[C@@H](CC(N)=O)C(=O)N[C@@H](CCCCN)C(=O)N[C@@H](CCC(N)=O)C(=O)N[C@@H](CS)C(=O)O [SMLSVLKNLEKVELEFVACKINKQC]	–	–	–	MIC (Escherichia coli): > 200 µM; MIC (Candida albicans): > 200 µM; MIC (Staphylococcus aureus): > 200 µM

Second part, led by results:

MIC [3]	MIC [7]	MIC [8]	Compound	further results
1 µM (≈ 3.84 µg/mL)	29 µM (≈ 111 µg/mL)	1 µM (≈ 3.84 µg/mL)	CC[C@H](C)[C@@H]1NC(=O)[C@H](CCCCN)NC(=O)[C@@H](NC(=O)[C@H](C)NC(=O)[C@@H](NC(=O)[C@H](CC(C)C)NC(=O)[C@H](CC(=O)O)NC(=O)[C@@H](NC(=O)CNC(=O)[C@H](CC(C)C)NC(=O)[C@H](CCCCN)NC(=O)[C@@H](NC(=O)[C@H](CC(C)C)NC(=O)[C@H](CC(=O)O)NC(=O)[C@H](CCCCN)NC(=O)CNC(=O)[C@H](CC(C)C)NC(=O)CNC(=O)[C@H](CCCCN)NC(=O)[C@H](CO)NC(=O)[C@H](C)NC(=O)[C@H](Cc2ccccc2)NC(=O)[C@H](CCCCN)NC(=O)[C@H](C)NC(=O)[C@H](C)NC(=O)CNC(=O)[C@H](CCCN=C(N)N)NC(=O)[C@H](CC(C)C)NC(=O)[C@@H](NC(=O)[C@H](CO)NC(=O)[C@H](Cc2ccccc2)NC(=O)[C@H](CC(C)C)NC(=O)CN)[C@@H](C)CC)[C@@H](C)O)C(C)C)C(C)C)CSSC[C@@H](C(=O)O)NC(=O)[C@H](CCC(N)=O)NC(=O)[C@H](CCCCN)NC(=O)[C@H](CO)NC1=O [GLFSILRGAAKFASKGLGKDLTKLGVDLVACKISKQC]	–
19 µM (≈ 60.4 µg/mL)	–	≥ 150 µM	CC[C@H](C)[C@H](NC(=O)CNC(=O)[C@H](C)NC(=O)[C@@H](NC(=O)[C@H](CC(=O)O)NC(=O)[C@H](CCCCN)NC(=O)[C@H](C)NC(=O)[C@H](C)NC(=O)CNC(=O)[C@H](CCCCN)NC(=O)[C@H](CC(C)C)NC(=O)[C@@H](NC(=O)[C@H](CC(=O)O)NC(=O)[C@H](CC(C)C)NC(=O)[C@H](CC(C)C)NC(=O)[C@H](CC(C)C)NC(=O)CN)[C@@H](C)O)[C@@H](C)CC)C(=O)N[C@@H](C)C(=O)N[C@@H](CC(C)C)C(=O)N[C@@H](CCC(=O)O)C(=O)N[C@@H](CCCCN)C(=O)N[C@@H](CC(C)C)C(=O)N[C@@H](CCCCN)C(=O)N[C@H]1CSSC[C@@H](C(=O)N[C@@H](CCCCN)C(=O)N2CCC[C@H]2C(=O)O)NC(=O)CNC(=O)[C@H]([C@@H](C)O)NC(=O)[C@H]([C@@H](C)CC)NC(=O)[C@H](CCCCN)NC1=O [GLLLDTLKGAAKDIAGIALEKLKCKITGCKP]	–
> 128 µM	–	–	CC[C@H](C)[C@H](N)C(=O)N[C@@H](CCCN=C(N)N)C(=O)N1CCC[C@H]1C(=O)N[C@H](C(=O)N[C@@H](CCCN=C(N)N)C(=O)N1CCC[C@H]1C(=O)O)[C@@H](C)CC [IRPIRP]	MIC [1]: > 128 µM; MIC [2]: > 128 µM; MIC [9]: > 128 µM; MIC (Escherichia coli UB1005): ≥ 128 µM; MIC [5]: > 128 µM; MIC [10]: > 128 µM; MIC [11]: ≥ 128 µM; MIC [12]: > 128 µM
–	–	25 µM (≈ 39.4 µg/mL)	CC[C@H](C)[C@H](NC(=O)[C@@H](NC(=O)[C@@H]1CCCN1C(=O)[C@H](CC(C)C)NC(=O)[C@@H](NC(=O)[C@@H](N)CO)[C@@H](C)CC)[C@@H](C)O)C(=O)N[C@H](C(=O)N[C@@H](CO)C(=O)N[C@@H](Cc1ccccc1)C(=O)N[C@@H](CC(C)C)C(=O)N[C@H](C(=O)N[C@@H](CCCCN)C(=O)N[C@@H](Cc1ccccc1)C(=O)N[C@@H](CC(C)C)C(N)=O)[C@@H](C)O)C(C)C [SILPTIVSFLTKFL]	–
